The target of this assay is T1, C5AR1 (Homo sapiens, UniProt P21730).
T1 construct: host or cells: CHO-K1
T1 sequence (P21730 1-350): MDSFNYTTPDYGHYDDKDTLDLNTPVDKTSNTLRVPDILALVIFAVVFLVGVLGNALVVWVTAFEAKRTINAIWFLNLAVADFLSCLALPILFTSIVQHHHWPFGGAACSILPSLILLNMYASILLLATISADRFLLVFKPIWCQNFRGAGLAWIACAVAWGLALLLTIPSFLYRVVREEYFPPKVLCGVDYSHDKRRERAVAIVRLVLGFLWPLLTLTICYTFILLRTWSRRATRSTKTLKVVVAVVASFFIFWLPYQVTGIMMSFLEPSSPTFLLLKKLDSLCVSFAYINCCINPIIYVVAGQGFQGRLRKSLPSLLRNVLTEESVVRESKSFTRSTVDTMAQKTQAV
Put plainly: In vitro assay: antagonism of C5a-induced beta-arrestin recruitment (PathHunter) in CHO-K1 C5AR1 beta-arrestin cell line. It is filed as cell-based. The note with it: antagonistic activity, 1-10 nM C5a agonist, geometric mean where several measurements, read-out: C5aR IC50. The method in brief: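 Antagonist or DMSO added first, then C5a (1-10 nM, added at 6-fold end concentration), 1.5 h at 37 °C. PathHunter detection reagent was added for 45 min at RT before plate reading. IC50s come from antagonist serial dilutions in nmol/l and are geometric means of several measurements.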
For the compound `CCN1CC(n2cc3c(n2)N(Cc2ccccc2C(F)(F)F)C(=O)N(C2CCN(c4c(C)cccc4F)CC2)C3)C1` [Example 103], the IC50 came to 0.351 µM.

Take `Cc1cccc(F)c1N1CCC(N2Cc3cn(CCN(C)C4CC4)nc3N(Cc3ccccc3C(F)(F)F)C2=O)CC1` [Example 73]: the IC50 turned out to be 0.017 µM.

On to `Cn1cc2c(n1)N(Cc1ccccc1C(F)(F)F)C(=O)N(C1CCN(c3c(F)cccc3C(F)F)CC1)C2` [Example 300], for which the IC50 stood at 0.029 µM.

On to `COc1nccc(C(F)(F)F)c1N1CCC(N2C(=O)N(Cc3ccccc3C(F)(F)F)c3nn(C)cc3C2C)CC1` (single isomer, unassigned) [Example 363], for which the IC50 came to 0.097 µM.

In the case of `Cc1cccc(F)c1N1CCC(N2Cc3cn(C4CN(C(=O)OC5(C)COC5)C4)nc3N(Cc3ccccc3C(F)(F)F)C2=O)CC1` [Example 141], the IC50 stood at 0.021 µM.

For `Cn1cc2c(n1)CN(C1CCN(c3c(F)cccc3C(F)F)CC1)C(=O)N2Cc1ccccc1C(F)(F)F` [Example 301], the IC50 stood at 0.069 µM.

For the compound `COc1nccc(C)c1N1CCC(N2C(=O)N(Cc3ncccc3C(F)(F)F)c3nn(C)cc3C2C)CC1` (single isomer, unassigned) [Example 356], the IC50 was 0.005 µM.

On to `Cc1cccc(F)c1N1CCC(N2Cc3cn(CC(=O)N(C)C)nc3N(Cc3ccccc3C(F)(F)F)C2=O)CC1` [Example 30], for which the IC50 stood at 0.095 µM.

On to `COc1nccc(C)c1N1CCC(N2C(=O)N(Cc3ccccc3C3CC3)c3c[nH]nc3C2C)CC1` (single isomer, unassigned) [Example 274], for which the IC50 was 0.037 µM.

Turning to `COc1nccc(C)c1N1CCC(N2C(=O)N(Cc3ccccc3C3CC3)c3cn(C4CC4)nc3C2C)CC1` (single isomer, unassigned) [Example 292], the IC50 is 0.515 µM.

As to `CC(=O)N1CCC1Cn1cc2c(n1)N(Cc1ccccc1C(F)(F)F)C(=O)N(C1CCN(c3c(C)cccc3F)CC1)C2` (stereo not shown) [Example 114], the IC50 worked out at 0.107 µM.

Consider `Cc1cccc(F)c1N1CCC(N2Cc3cn(C)nc3N(Cc3ccccc3C(F)(F)F)C2=O)C1` (stereo not shown) [Example 44], for which the IC50 was found to be 0.035 µM.

On to `Cn1cc2c(n1)N(Cc1ccccc1C1CC1)C(=O)N(C1CCN(c3c(F)cccc3F)CC1)C2` [Example 285], for which the IC50 was determined as 0.009 µM.

As to `Cn1cc2c(n1)N(Cc1ccccc1C(F)(F)F)C(=O)N(C1CCN(c3c(F)cccc3F)CC1)C2` [Example 273], the IC50 is 0.013 µM.

For the compound `Cc1cccc(F)c1N1CCC(N2Cc3cn(CC(C)(F)F)nc3N(Cc3ncccc3C(F)(F)F)C2=O)CC1` [Example 194], the IC50 came out at 0.005 µM.

Regarding `Cc1cccc(F)c1N1CCC(N2Cc3cn(C4CN(c5nnc(C(F)(F)F)o5)C4)nc3N(Cc3ccccc3C(F)(F)F)C2=O)CC1` [Example 144], the IC50 was 0.014 µM.

For the compound `COc1nccc(C)c1N1CCC(N2C(=O)N(Cc3ccccc3C(F)(F)F)c3cn(C4CC4)nc3C2C)CC1` (single isomer, unassigned) [Example 296], the IC50 was determined as 0.015 µM.

For the compound `CC1c2cn(C)nc2N(Cc2ccccc2C(F)(F)F)C(=O)N1C1CCN(c2c(F)cccc2C2CC2)CC1` (single isomer, unassigned) [Example 334], the IC50 was found to be 0.21 µM.

Take `CC1c2cn(C3CCCCO3)nc2N(Cc2ccccc2C2CC2)C(=O)N1C1CCN(c2c(F)cccc2Cl)CC1` (stereo not shown) [Example 365]: the IC50 is 0.045 µM.

Regarding `Cn1cc2c(n1)N(Cc1ccccc1C(F)(F)F)C(=O)N(C1CCN(c3c(F)cccc3C#N)CC1)C2` [Example 49], the IC50 is 0.012 µM.

Consider `Cc1cccc(F)c1N1CCC(N2Cc3nn(CC4(F)CC4)cc3N(Cc3ccccc3C(F)(F)F)C2=O)CC1` [Example 184], for which the IC50 amounted to 0.009 µM.

As for `CC(C)=Cn1cc2c(n1)N(Cc1ccccc1C(F)(F)F)C(=O)N(C1CCN(c3c(C)cccc3F)CC1)C2` [Example 153], the IC50 was 0.04 µM.

For `CC(=O)N1CC(n2cc3c(n2)N(Cc2ccccc2C(F)(F)F)C(=O)N(C2CCN(c4c(C)cccc4F)CC2)C3)C1` [Example 116], the IC50 was determined as 0.844 µM.

For the compound `Cc1cccc(F)c1N1CCC(N2Cc3nn(C)nc3N(Cc3ccccc3C(F)(F)F)C2=O)CC1` [Example 81], the IC50 was determined as 0.021 µM.

Regarding `Cc1cccc(F)c1N1CCC(N2Cc3nn(C4CC4)cc3N(Cc3ncccc3C(F)(F)F)C2=O)CC1` [Example 212], the IC50 was 0.01 µM.

Take `COc1nccc(C)c1N1CCC(N2Cc3cn(C)nc3N(Cc3ccccc3C(F)(F)F)C2=O)CC1` [Example 54]: the IC50 came to 0.014 µM.

As to `CC(=O)N1CCC(n2cc3c(n2)N(Cc2ccccc2C(F)(F)F)C(=O)N(C2CCN(c4c(C)cccc4F)CC2)C3)C1` (stereo not shown) [Example 113], the IC50 was determined as 0.11 µM.

In the case of `Cc1cccc(F)c1N1CCC(N2Cc3cn(CC(C)(F)F)nc3N(Cc3c(Br)cccc3C(F)(F)F)C2=O)CC1` [Example 214], the IC50 is 0.087 µM.

Take `COc1nccc(C)c1N1CCC(N2Cc3cn(CC(C)(F)F)nc3N(Cc3ccccc3C(F)(F)F)C2=O)CC1` [Example 205]: the IC50 came to 0.008 µM.

Regarding `Cc1cccc(F)c1N1CCC(N2C(=O)N(Cc3ncccc3C(F)(F)F)c3nn(C)cc3C2C)CC1` (single isomer, unassigned) [Example 354], the IC50 stood at 0.005 µM.

On to `Cc1cccc(F)c1N1CCC(N2C(=O)N(Cc3ccccc3C3CC3)c3nn(C)cc3C2C)CC1` (single isomer, unassigned) [Example 318], for which the IC50 was 0.131 µM.

For the compound `Cc1cccc(F)c1N1CCC(N2Cc3cn(C)nc3N(Cc3c(F)cccc3C(F)(F)F)C2=O)CC1` [Example 61], the IC50 worked out at 0.016 µM.

Regarding `CCOC(=O)N1CC[C@@H]1Cn1cc2c(n1)N(Cc1ccccc1C(F)(F)F)C(=O)N(C1CCN(c3c(C)cccc3F)CC1)C2` [Example 134], the IC50 turned out to be 0.013 µM.

As for `CC1c2c[nH]nc2N(Cc2ccccc2C(F)(F)F)C(=O)N1C1CCN(c2c(F)cccc2Cl)CC1` (single isomer, unassigned) [Example 351], the IC50 came out at 0.784 µM.

For `Cc1cccc(F)c1N1CCC(N2Cc3cn(CC#N)nc3N(Cc3ccccc3C(F)(F)F)C2=O)CC1` [Example 24], the IC50 was 0.015 µM.

`Cc1cccc(F)c1N1CCC(C)(N2Cc3cn(C)nc3N(Cc3ccccc3C(F)(F)F)C2=O)C1` (single isomer, unassigned) [Example 235]: the IC50 was determined as 0.169 µM.

In the case of `Cn1cc2c(n1)CN(C1CCN(c3c(F)cccc3Cl)CC1)C(=O)N2Cc1ccccc1C(F)(F)F` [Example 302], the IC50 turned out to be 0.048 µM.

For the compound `Cc1cccc(F)c1N1CCC(N2Cc3cn(C[C@H]4CC(F)(F)CN4)nc3N(Cc3ccccc3C(F)(F)F)C2=O)CC1` [Example 111], the IC50 turned out to be 0.029 µM.

Take `CC1c2cn(C3CCCCO3)nc2N(Cc2ccccc2C(F)(F)F)C(=O)N1C1CCN(c2c(F)cccc2Cl)CC1` (stereo not shown) [Example 342]: the IC50 is 0.024 µM.

With `Cc1cccc(F)c1N1CCC(N2C(=O)N(Cc3ccccc3C3CC3)c3nn(C4CC4)cc3C2C)CC1` (single isomer, unassigned) [Example 339], the IC50 was 0.012 µM.

As for `Cc1cccc(F)c1N1CCC(N2Cc3cn(C4CN(C(=O)OCC(C)C)C4)nc3N(Cc3ccccc3C(F)(F)F)C2=O)CC1` [Example 132], the IC50 is 0.008 µM.

For the compound `Cc1cccc(F)c1N1CCC(N2C(=O)N(Cc3ccccc3C(F)(F)F)c3nn(CC(C)(F)F)cc3C2C)CC1` (single isomer, unassigned) [Example 306], the IC50 worked out at 0.285 µM.

Regarding `CC1c2cn(C3CC3)nc2N(Cc2ccccc2C(F)(F)F)C(=O)N1C1CCN(c2c(F)cccc2Br)CC1` (single isomer, unassigned) [Example 360], the IC50 is 0.003 µM.

These data come from patent US11608341B2, “Substituted tetrahydropyrazolo[3,4-d]pyrimidines and tetrahydropyrazolo[4,3-d]pyrimidines as C5A receptor modulators” (Idorsia Pharmaceuticals Ltd., priority 2018, dated 2023).
